Measurements: PMC9260667, “Thioredoxin Reductase Inhibitors as Potential Antitumors: Mercury Compounds Efficacy in Glioma Cells” (Frontiers in Molecular Biosciences, 2022)
Where two headings read alike, the source gives them in different places.

How the values were obtained:
GL261 cells [1] = assay: cells; assay type: cell-based, mouse; settings: for IC50: Mus musculus, read-out: IC50 (MTT assay)
Protocol: The effect of TmHg and EtHg on the viability of GL261 and N9 cells was evaluated by the MTT assay as previously described ([Branco et al., 2014]). Briefly, cells (5 × 10^3) were seeded in 96-well plates (Nunc®) and incubated at 37°C for 24 h to allow proper adherence to plates. Afterwards, TmHg and EtHg (0, 0.5, 1, 2.5, and 5 μM) were added to wells. The same procedure was carried out to evaluate the effect of TMZ on the cellular viability of GL261 and DMSO at a final concentration of 0.1% was added as a control group. For co-exposure, the addition of the mercury compounds (EtHg—1 and 2 μM; TmHg—1 and 2 µM) under study followed the addition of TMZ (200 µM).
Cell viability was determined at the time of addition of the compounds (0 h) and after 24, 48, and 72 h of exposure by adding MTT to a final concentration of 400 μg/ml per well and incubating at 37°C for 4 h. After incubation, the medium was removed, and the formazan crystals were dissolved in a 4:1 DMSO/glycine buffer (pH 10.5). After shaking for 15 min, the viability was evaluated through the measurement of formazan absorption at 550 nm on a microplate reader (Zenyth 3100, Anthos Labtec Instruments) ([Branco et al., 2014]).
The IC50 is the concentration of a compound that decreases MTT reduction by 50% relative to the non-treated control at each time point.

GL261 cells [2] = assay: cells; assay type: cell-based, mouse
Protocol: Cells were seeded in 96-well plates for 24 h prior to the addition of TmHg, EtHg (1 µM), TMZ (200, 400, and 800 µM), and for the 48 h end point the co-exposure of TMZ 200 µM with 1 µM EtHg and 1 µM TmHg. After exposure for 24 and 48 h, the supernatant was transferred to a fresh plate and a lysis buffer (10×) (Thermo Scientific™ Pierce™) was added to wells containing cells and incubated at 37°C for 45 min. LDH activity was evaluated using LDH Cytotoxicity Assay Kit from Thermo Scientific™ Pierce™ in the supernatant and lysate by the addition of lactate (substrate), a tetrazolium salt, and NAD^+ (cofactor) (Reaction Mixture), according to the manufacturer’s instructions. Following 30 min of incubation in the dark at room temperature, LDH release was assessed by measuring the absorbance at 490 and 680 nm in a microplate reader (Omega BMG LABTECH). The release of LDH was quantified as the ratio between the amount in the supernatant and total LDH (supernatant + lysate) ([Branco et al., 2017]).

[3] = set-up: method as in JECFA 2004, WHO Technical Report Series 922; settings: ref JECFA 2004, WHO Technical Report Series 922; cited from earlier work

Row | SMILES | reduction of viability (MTT) (GL261 cells [1]; GL261, 24 h exposure, maximal effect) [%] | IC50 (GL261 cells [1]; GL261, 48 h exposure) [µM] | IC50 (GL261 cells [1]; GL261, 72 h exposure) [µM] | change of LDH levels (GL261 cells [2]; GL261, 200 µM TMZ alone) | EC50 (GL261 cells [2]; Mus musculus, GL261, 48 h exposure, read-out: EC50 (LDH assay)) [µM] | safe concentration of intake without appearance of neurological disorders [3] [µg/Kg b.w./week]
1 | Cn1nnc2c(C(N)=O)ncn2c1=O [TMZ, temozolomide] | ≤ 40 | 444 ± 60 | 276 ± 7 | did not change the levels of LDH | > 800 | 
2 | [CH3][Hg][Cl] [methylmercury] |  |  |  |  |  | 1.6
